Source: patent US20080039434A1, “Treatment of Interstitial Cystitis with Vitamin D Compounds” (BioXell S. p.A., priority 2004, published 2008)

Key:
MMCP1 protein = assay: Serum level of mast-cell derived chymase MMCP1 protein, allergic IC in mice; assay type: in vivo, mouse
Method: (§1) Mice (BALB/c, females 8 weeks old, weight 18-20 g, Charles River, Calco ITA) were sensitized by injecting 10 ug/mouse of chicken ovalbumin from Sigma (OVA, grade V) in the presence of 4 mg of alum (SERVA, Germany) by intraperitoneal injection, once a week for 4 weeks. This induces a sustained level of IgE detectable in serum.
(§2) One or two weeks after the last immunization boost, sensitized mice were anesthetized (1.5% Isoflurane) and then trans-urethrally catheterized (24 gauge, ¾ in.; Angiocath, Becton-Dickson). Slight digital pressure was applied the lower abdomen to drain the urine.
(§3) The urinary bladders were instilled with either 150 ul of either saline or OVA alone, (1 mg/150 ul) infused at a slow rate to avoid trauma and vesico-ureteral reflux and repeated twice within a 30-min interval with the syringe kept in place on the catheter for at least 30 min. Intravesical challenge was repeated 7-10 days after the first one with the same procedure.
Treatment Group: 10 mice were treated with oral vitamin D3 analogue (1-alpha-fluoro-25-hydroxy-16,23Ediene-26,27-bishomo-20-epi-cholecalciferol) Compound “B” for 14 days (daily dose of either 30 or 75 ug/kg).
(§4) An ethanol stock solution of Compound B (1 mg/ml) was dissolved in Miglyol vehicle at the appropriate concentration. Control animals received the vehicle containing the same amount of ethanol. Drug (or vehicle) treatment was carried out by daily gavage after weighing the animal. Drug solution was prepared calculating a final volume of 100 ul/10 grams body weight, and treatment was started on the day of the first intravesical ovalbumin challenge, maintained daily, but discontinued over the weekends, for 12 days total treatment. FIG. 7 illustrates the timeline of the experiment.
(§5) Experiments in Example 7 were performed according to the general procedures described previously in Example 6. Mice were challenged with saline (untreated) or ovalbumin (treatment with vehicle or one of Compounds C-I at a dosage indicated in Table 6 in ug/kg).

[1] = Calcemia assessment in allergic IC mice (colorimetric serum calcium assay); assay type: in vivo, mouse; design: serum calcium levels: dose or concentration left out as unconfirmed
Method: (§6) Serum calcemia was evaluated by a commercially available colorimetric assay (Calcium Dry-Fast, Sentinel CH. Italy). Briefly, 10 ul serum were added to 100 ul reaction solution prepared according to the manufacturer's procedure in a 96-wells plate. After 5 min incubation at RT samples were read at 570 nm with a spectrophotometer and the calcium levels were calculated in triplicate by using a standard reference as directed.

[2] = tested on: ovalbumin-challenged mouse bladder; assay: Blind histological analysis of bladder sections, allergic IC in mice; assay type: in vivo
Method: as §1, §2, §3, §4
Bladders were explanted from the animals, longitudinally divided in two moieties, one half was either immediately fixed in formalin (10% buffered) for at least 3 hrs or snap frozen in liquid nitrogen upon inclusion in OCT freezing medium (Tissue-Tek Sakura). For histological analysis, fixed bladders were further processed and finally paraffin embedded. Five um sections were serially cut then stained with GIEMSA (BDH, 20% solution, 3 hrs RT) and then de-stained in 0.1% acetic acid for 10 sec. After a clarification step in Xylene, slides were permanently mounted with Eukitt medium and analyzed by a pathologist in a blinded fashion in order to evaluate for inflammatory cell infiltrate, mast cell numbers, and the presence of interstitial edema. A semi-quantitative histological score was used, assigning: 1 for mild infiltrate, no edema; 2 for intermediate infiltration, little edema; and 3 for severe infiltration and edema.
as §5

[3] = tested on: allergen-induced chronic bladder inflammation; assay: Efficacy ranking in the allergen-induced chronic bladder inflammation model of interstitial cystitis; assay type: in vivo, mouse; settings: each compound at its tested dosage
Method: as §5
Summarizing all the results presented above in Example 7, we can conclude that these compounds can be ranked with respect to their efficacy in reducing several parameters measuring inflammation of the bladder in the allergen-induced chronic bladder inflammation model of interstitial cystitis.

[4] = Calcemia assessment in CYP rats (colorimetric serum calcium assay); assay type: in vivo, rat; settings: both dosage levels (30 and 75 ug/kg); limit of normal range 10.7 mg/dl in rats
Method: as §6, with “calorimetric” for “colorimetric”

ovalbumin specific IgE = assay: Ova-specific IgE ELISA, allergic IC in mice; assay type: in vivo, mouse; settings: 75 ug/kg oral vs vehicle; ovalbumin-sensitized BALB/c mice
Method: as §1, §2, §3
Treatment Group: 10 mice were treated with oral vitamin D3 analogue (1-alpha-fluoro-25-hydroxy-16,23Ediene-26,27-bishomo-20-epi-cholecalciferol) Compound “B” for 14 days (daily dose of either 30 or 75 ug/kg). […]
Ova-specific IgE were measured according to the following procedure. […] Finally, 450 nm absorbance was recorded after the reaction was stopped.

[5] = Body weight in allergic IC mice; assay type: in vivo, mouse; settings: 75 ug/kg oral vs control animals; daily timepoints
Method: as §4

FcεR1α = assay: Taq-Man analysis of bladder mRNA, allergic IC in mice: FcεR1α; assay type: in vivo, mouse; settings: ovalbumin challenged
Method: as §1, §2, §3, §4
Total RNA was extracted from one half of bladder by using RNeasy Mini kit (Qiagen), treated with DNase 1 (Qiagen) and reverse transcription performed with Reverse Transcription Reagent (Applied Biosystems) with Random Hexamers (according to the manufacturer's instructions). cDNA was synthesized from 1 ug of RNA. Real-Time PCR was performed in 96-well optical reaction plates (Applied Biosystems). For each sample we amplified both the target gene and the housekeeping gene (HPRT) in different wells (singleplex) and in duplicate. The amplification Master Mix was prepared according to the following protocol (volumes refer to a single well with a final volume of 40 ul/well)): 2× TaqMan® R Universal PCR Master Mix (Applied Biosystems, 4304437): 20 ul; 20× Assay target gene: 2 ul; H2O: 8 ul; cDNA: 10 ul. Reaction was run on an SDS 7000 (Applied Biosystems) instruments, with the following amplification program: 2′ at 50° C.; 10′ at 95° C.; 15″ at 95° C. and 1′ at 60° C. for 40 cycles; Cycle threshold (Ct) values were exported into Excel Worksheets for analysis and relative quantitations were performed using the ΔCt method. All primers used carried the FAM reporter.
as §5

[6] = 75 ug/kg oral vs vehicle, p<0.05
[7] = 75 ug/kg oral vs vehicle, p<0.01

serum calcium levels relative to the vehicle treated control group ([1]; oral ug/kg: C 3, A 0.1, E 0.3, F 30, G 100, H 1, I 3, elevations p<0.001) | SMILES | serum level of the MMCP1 protein (MMCP1 protein; ovalbumin challenged vs vehicle, oral ug/kg: A 0.1, E 0.3, F 30, F p<0.05, A, E p<0.001) | numbers of eosinophils in the bladder wall ([2]; 0.1 ug/kg oral vs vehicle, p<0.05) | Efficacy ranking in reducing parameters of bladder inflammation [3] | average serum calcium levels [4] | ovalbumin specific IgE in serum (ovalbumin specific IgE) | serum levels of chymase MMCP1 protein (MMCP1 protein; [6]) | serum calcium level [1, 6] | calcemic levels relative to the toxicity threshold ([1]; 75 ug/kg oral, toxicity threshold 10.7 mg/dl in mice) | serum calcium levels ([1]; lower dosage, not shown) | body weight [5] | expression of inflammatory marker FcεR1α (FcεR1α; 75 ug/kg oral, individual animals) | expression of inflammatory marker FcεR1α (FcεR1α; 30 and 75 ug/kg oral, dose dependent, pooled samples) | edema in bladder sections ([2]; 75 ug/kg oral vs vehicle, p<0.001) | eosinophils in bladder sections [2, 7] | lymphocytes in bladder sections [2, 7] | mast cells in bladder sections [2, 6] | signs of edema in representative bladder slides ([2]; 75 ug/kg oral, FIG. 16, x50 magnification)
no significant increase | CC(=O)OC1C/C(=C/C=C2\CCC[C@]3(C)C(C(C)C/C=C\C(O)(C(F)(F)F)C(F)(F)F)=CCC23)C[C@@H](OC(C)=O)C1 (stereo partly shown) [Compound A, 1,3-Di-O-acetyl-1,25-dihydroxy-16,23Z-diene-26,27-hexafluoro-19-nor-cholecalciferol] | statistically significant reduction | significantly reduced numbers | Compound E>Compound F>Compound B>Compound H>Compound I>Compound A>Compound A=Compound G |  |  |  |  |  |  |  |  |  |  |  |  |  | 
 | C=C1/C(=C\C=C2/CCC[C@]3(C)C([C@@H](C)C/C=C/C(O)(CC)CC)=CC[C@@H]23)C[C@@H](O)C[C@@H]1F [Compound B, 1-alpha-fluoro-25-hydroxy-16,23E-diene-26,27-bishomo-20-epi-cholecalciferol] |  |  | Compound E>Compound F>Compound B>Compound H>Compound I>Compound A>Compound A=Compound G | only slightly but not significantly elevated | no significant changes | significantly lower | small, but statistically significant increase | did not cause calcemic levels to rise above the toxicity threshold | No significant changes | no significant difference | down-modulates | significantly reduces | completely resolved | significant reduction | significant reduction | significant reduction | no signs of edema
